Experimental data: ChEMBL document CHEMBL5316327, “Design and Synthesis of Orally Active Quinolyl Pyrazinamides as Sigma 2 Receptor Ligands for the Treatment of Pancreatic Cancer” (J Med Chem, 2023)
Active and inactive are the calls of the source. The rule behind the calls is not given here.

Columns and labels:
MIA PaCa-2 [1] = assay: Additive cytotoxicity against human MIA PaCa-2 cells at upto 1 uM measured after 7 days in presence of copper chloride by crystal violet staining based analysis; type: functional, cell-based; conditions: time 7.0 day
HCT-116 [2] = assay: Induction of apoptosis in human HCT-116 cells assessed as late apoptotic cells at […] measured after 48 hrs by Annexin V-Alexa Fluor 488/propidium iodide staining based flow cytometry (reference value: 8.48%); type: functional; conditions: dose 2.5 µM
[3] = target: Muscarinic acetylcholine receptor M1 (Homo sapiens, UniProt P11229); assay: Binding affinity to M1 receptor (unknown origin) assessed as inhibition constant
Sequence of Muscarinic acetylcholine receptor M1 (P11229 whole entry): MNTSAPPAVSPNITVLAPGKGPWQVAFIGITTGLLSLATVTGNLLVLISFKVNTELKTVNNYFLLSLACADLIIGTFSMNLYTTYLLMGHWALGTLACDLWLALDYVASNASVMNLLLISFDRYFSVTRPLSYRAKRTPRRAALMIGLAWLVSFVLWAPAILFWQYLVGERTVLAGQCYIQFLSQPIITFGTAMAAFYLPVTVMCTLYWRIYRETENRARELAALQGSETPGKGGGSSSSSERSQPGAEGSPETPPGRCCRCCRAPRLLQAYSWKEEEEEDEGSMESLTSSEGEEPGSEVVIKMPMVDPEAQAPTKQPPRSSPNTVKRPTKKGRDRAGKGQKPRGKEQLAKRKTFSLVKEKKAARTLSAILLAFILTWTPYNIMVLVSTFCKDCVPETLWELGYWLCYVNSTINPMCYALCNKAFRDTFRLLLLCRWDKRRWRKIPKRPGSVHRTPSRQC

[4] = AUC (0 to time of last detectable concentration) in CD-1 mouse plasma at 20 mg/kg, po; type: ADME, organism-based; set-up: dose 20 mg/kg, route po
[5] = AUC (0 to infinity) in CD-1 mouse plasma at 10 mg/kg, iv; type: ADME, organism-based; set-up: dose 10 mg/kg, route iv
MIA PaCa-2 [6] = assay: Induction of apoptosis in human MIA PaCa-2 cells assessed as viable cells at 10.0 uM measured after 48 hrs by Annexin V-Alexa Fluor 488/propidium iodide staining based flow cytometry (reference value: 82.23%); type: functional; conditions: read-out: Activity
Panc02 = assay: Antitumor activity against mouse Panc02 cells xenografted in C57BL/6 mouse model assessed as delayed tumor growth at 30 mg/kg, po administered daily for 32 days in presence of copper sulfate by caliper method; type: functional, organism-based; conditions: time 32.0 day
MIA PaCa-2 [7] = assay: Synergistic cytotoxicity in human MIA PaCa-2 cells at upto 1 uM measured after 7 days in presence of vemurafenib by crystal violet staining based analysis; type: functional, cell-based; conditions: time 7.0 day
MIA PaCa-2 [8] = assay: Additive cytotoxicity against human MIA PaCa-2 cells at upto 1 uM measured after 7 days in presence of ammonium tetrathiomolybdate by crystal violet staining based analysis; type: functional, cell-based; conditions: time 7.0 day
MIA PaCa-2 [9] = assay: Induction of apoptosis in human MIA PaCa-2 cells assessed as early apoptotic cells at 5.0 uM measured after 48 hrs by Annexin V-Alexa Fluor 488/propidium iodide staining based flow cytometry (reference value: 4.11%); type: functional
MIA PaCa-2 [10] = assay: Induction of cell cycle arrest in human MIA PaCa-2 cells assessed as accumulation of cells in G0/G1 phase at 10 uM measured after 24 hrs by propidium iodide staining-based flow cytometric analysis (reference value: 53%); type: functional
[11] = Toxicity in C57BL/6 mouse assessed as effect on body weight at 30 mg/kg, po measured upto 32 days in presence of copper sulfate; type: organism-based; conditions: in vivo, 768 h, time < 32 day
HCT-116 [12] = assay: Induction of cell cycle arrest in human HCT-116 cells assessed as accumulation of cells in G2/M phase at 5 uM measured after 24 hrs by propidium iodide staining-based flow cytometric analysis (reference value: 10%); type: functional
HCT-116 [13] = assay: Antagonistic cytotoxicity against human HCT-116 cells at upto 1 uM measured after 6 days in presence of disulfiram by crystal violet staining based analysis; type: functional, cell-based; conditions: time 6.0 day
[14] = Cytotoxicity against HEK293 cells measured after 72 hrs by MTT assay; type: toxicity, cell-based; conditions: human
[15] = target: 5-hydroxytryptamine receptor 2A (Homo sapiens, UniProt P28223); assay: Binding affinity to 5-HT2A receptor (unknown origin) assessed as inhibition constant
Sequence of 5-hydroxytryptamine receptor 2A (P28223 whole entry): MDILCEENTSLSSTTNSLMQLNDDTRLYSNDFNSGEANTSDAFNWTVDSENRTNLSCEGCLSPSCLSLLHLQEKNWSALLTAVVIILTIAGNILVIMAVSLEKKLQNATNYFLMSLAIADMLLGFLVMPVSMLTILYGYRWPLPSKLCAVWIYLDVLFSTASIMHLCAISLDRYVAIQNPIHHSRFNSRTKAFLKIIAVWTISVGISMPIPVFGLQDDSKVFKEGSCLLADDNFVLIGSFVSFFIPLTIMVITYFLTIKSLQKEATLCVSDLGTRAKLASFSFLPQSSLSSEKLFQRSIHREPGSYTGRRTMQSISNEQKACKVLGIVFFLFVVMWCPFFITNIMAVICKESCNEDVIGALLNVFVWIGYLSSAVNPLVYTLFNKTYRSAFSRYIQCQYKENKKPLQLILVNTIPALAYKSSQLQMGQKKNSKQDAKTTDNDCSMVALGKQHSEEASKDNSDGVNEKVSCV

PANC-1 [16] = assay: Induction of autophagy in human PANC-1 cells assessed as upregulation of LC-3 level at 1 to 10 uM measured after 24 hrs; type: functional, cell-based; conditions: dose 1-10 µM
MIA PaCa-2 [17] = assay: Induction of apoptosis in human MIA PaCa-2 cells assessed as necrotic cells at 5.0 uM measured after 48 hrs by Annexin V-Alexa Fluor 488/propidium iodide staining based flow cytometry (reference value: 7.03%); type: functional
MIA PaCa-2 [18] = assay: Induction of apoptosis in human MIA PaCa-2 cells assessed as necrotic cells at 1.0 uM measured after 48 hrs by Annexin V-Alexa Fluor 488/propidium iodide staining based flow cytometry (reference value: 7.03%); type: functional
MIA PaCa-2 [19] = assay: Synergistic cytotoxicity in human MIA PaCa-2 cells at upto 1 uM measured after 7 days in presence of gemcitabine by crystal violet staining based analysis; type: functional, cell-based; conditions: time 7.0 day
MIA PaCa-2 [20] = assay: Induction of apoptosis in human MIA PaCa-2 cells assessed as early apoptotic cells at […] measured after 48 hrs by Annexin V-Alexa Fluor 488/propidium iodide staining based flow cytometry (reference value: 4.11%); type: functional; conditions: dose 2.5 µM
HCT-116 [21] = assay: Induction of apoptosis in human HCT-116 cells assessed as late apoptotic cells at 10.0 uM measured after 48 hrs by Annexin V-Alexa Fluor 488/propidium iodide staining based flow cytometry (reference value: 8.48%); type: functional
[22] = Half life in CD-1 mouse plasma at 20 mg/kg, po; type: ADME, organism-based
HCT-116 [23] = assay: Induction of apoptosis in human HCT-116 cells assessed as late apoptotic cells at 5.0 uM measured after 48 hrs by Annexin V-Alexa Fluor 488/propidium iodide staining based flow cytometry (reference value: 8.48%); type: functional
MIA PaCa-2 [24] = assay: Upregulation of LC3-B expression in human MIA-PaCa-2 cells measured after 72 hrs; type: functional, cell-based; conditions: dose 1-5 µM
HCT-116 [25] = assay: Induction of cell cycle arrest in human HCT-116 cells assessed as accumulation of cells in G2/M phase at […] measured after 24 hrs by propidium iodide staining-based flow cytometric analysis (reference value: 10%); type: functional; conditions: dose 2.5 µM
[26] = Volume of distribution at steady state in CD-1 mouse plasma at 10 mg/kg, iv; type: ADME, organism-based; conditions: read-out: Vdss
MIA PaCa-2 [27] = assay: Induction of cell cycle arrest in human MIA PaCa-2 cells assessed as accumulation of cells in G0/G1 phase at 1 uM measured after 24 hrs by propidium iodide staining-based flow cytometric analysis (reference value: 53%); type: functional
MIA PaCa-2 [28] = assay: Induction of apoptosis in human MIA PaCa-2 cells assessed as early apoptotic cells at 1.0 uM measured after 48 hrs by Annexin V-Alexa Fluor 488/propidium iodide staining based flow cytometry (reference value: 4.11%); type: functional
HCT-116 [29] = assay: Induction of apoptosis in human HCT-116 cells assessed as early apoptotic cells at […] measured after 48 hrs by Annexin V-Alexa Fluor 488/propidium iodide staining based flow cytometry (reference value: 2.77%); type: functional; conditions: dose 2.5 µM
[30] = Cytotoxicity against HPDE cells measured after 72 hrs by MTT assay; type: toxicity, cell-based; conditions: human
HCT-116 [31] = assay: Induction of apoptosis in human HCT-116 cells assessed as early apoptotic cells at 10.0 uM measured after 48 hrs by Annexin V-Alexa Fluor 488/propidium iodide staining based flow cytometry (reference value: 2.77%); type: functional
MIA PaCa-2 [32] = assay: Additive cytotoxicity in human MIA PaCa-2 cells at upto 1 uM measured after 24 hrs in presence of roluperidone; type: functional, cell-based
MIA PaCa-2 [33] = assay: Synergistic cytotoxicity in human MIA PaCa-2 cells at upto 1 uM measured after 7 days in presence of irinotecan by crystal violet staining based analysis; type: functional, cell-based; conditions: time 7.0 day
[34] = target: Sigma intracellular receptor 2 (Homo sapiens, UniProt Q5BJF2); assay: Displacement of [3H][…]ditolylguanidine from human sigma 2 receptor transfected in human HEK293T cells assessed as inhibition constant by radioligand competition binding assay; type: cell-based
Sequence of Sigma intracellular receptor 2 (Q5BJF2 whole entry): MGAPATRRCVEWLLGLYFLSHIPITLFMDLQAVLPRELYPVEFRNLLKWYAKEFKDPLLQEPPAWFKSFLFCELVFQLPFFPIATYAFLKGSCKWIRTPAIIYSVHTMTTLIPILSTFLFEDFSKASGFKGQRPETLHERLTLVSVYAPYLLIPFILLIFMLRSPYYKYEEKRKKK

HCT-116 [35] = assay: Induction of cell cycle arrest in human HCT-116 cells assessed as accumulation of cells in S phase at 5 uM measured after 24 hrs by propidium iodide staining-based flow cytometric analysis (reference value: 47%); type: functional
PANC-1 [36] = assay: cells; conditions: Homo sapiens, PANC-1, 72 h

Ki [3]: 4.2 µM | AUC [4]: 3.11 µg·h/mL | AUC(0-inf) [5]: 2.68 µg·h/mL | Ki [15]: 1.25 µM | half-life [22]: 6.1 h | Vd [26]: 21.4 L/kg | Ki [34]: 0.047 µM | IC50 (PANC-1 [36]): 4 µM
SMILES: CCN(CC)CCCC(C)Nc1cnc(C(=O)Nc2ccc(Cl)c3cccnc23)cn1 (configuration not stated)
Activity (MIA PaCa-2 [1]): Active | Activity (HCT-116 [2]): 20.26% | viability at 10 µM (MIA PaCa-2 [6]): 6.27% | Activity (Panc02): Active | Activity (MIA PaCa-2 [7]): inactive | Activity (MIA PaCa-2 [8]): inactive | Activity (MIA PaCa-2 [9]): 22.26% | Activity (MIA PaCa-2 [10]): 69% | Activity [11]: Non-Toxic | Activity (HCT-116 [12]): 22% | Activity (HCT-116 [13]): inactive | IC50 at 72 h [14]: 1.2 µM | Activity (PANC-1 [16]): Active | Activity (MIA PaCa-2 [17]): 5.32% | Activity (MIA PaCa-2 [18]): 3.16% | Activity (MIA PaCa-2 [19]): inactive | Activity (MIA PaCa-2 [20]): 13.89% | Activity (HCT-116 [21]): 47.98% | Activity (HCT-116 [23]): 18.39% | Activity (MIA PaCa-2 [24]): Dose-Dependent Effect | Activity (HCT-116 [25]): 19% | Activity (MIA PaCa-2 [27]): 46% | Activity (MIA PaCa-2 [28]): 11.44% | Activity (HCT-116 [29]): 8.77% | IC50 at 72 h [30]: 0.3 µM | Activity (HCT-116 [31]): 16.72% | Activity (MIA PaCa-2 [32]): Active | Activity (MIA PaCa-2 [33]): inactive | Activity (HCT-116 [35]): 35%
